Reference: patent US12172986B2, “Splicing modulator antibody-drug conjugates and methods of use” (EISAI R&D MANAGEMENT CO., LTD., priority 2018, dated 2024)
Where “and” joins values, the source holds several entries; their conditions need not be identical. Identical values can stand only once.

How the values were obtained:
MOLP8 cells = assay: Cell viability, CD138-expressing MOLP8; type: cell-based; details: for LD50 (nM) (payload) / Rmin (%) (payload): unconjugated payload of the ADC
Protocol: (§2) HCC1954 (American Type Culture Collection (ATCC)) breast ductal carcinoma cells were plated at 2000 cells/well in flat bottom 96-well tissue culture plates (Corning) in a total volume of 90 μL tissue culture medium supplemented with 10% fetal bovine serum (ThermoFisher Scientific). Cells were treated with a 3-fold serial dilution of compound from 200 nM to 0.03 nM. Each concentration was tested in triplicate. At the time of treatment, a plate of untreated cells was evaluated using CellTiter-Glo®2.0 Luminescent Cell Viability Assay according to the manufacturer's recommendations (Promega; #G9241). CellTiter-Glo® 2.0 reagent was added to the medium, incubated, and assayed on an EnVision Multilabel Reader (PerkinElmer). Values represent time zero (TO). […] Percentage growth inhibition was calculated as: [(T144-T0)/(C-TO)]×100 for concentrations for which T144>/=TO or [(T144-T0)/T0]×100 for concentrations for which T144<TO. The dose response curve plots were generated using Prism 7 (Graphpad) and fit using nonlinear regression analysis and the log(inhibitor) versus response-variable slope (four parameters).

Caco-2 cells = assay: Caco-2 permeability of ADC payload; type: in vitro ADME; details: for Permeability Caco-2 A-B (10e-6 cm/s): Table 26, corresponding payload; for Perm. Mean Caco-2 A-B Perm (10e-6 cm/s) / Perm. Mean Caco-2 B-A Perm (10e-6 cm/s): corresponding free payload of the ADC; for Eflux ratio: payload, B-A/A-B
Protocol: (§1) Integrity of cell monolayer was confirmed by TEER (transepithelial electrical resistance) and Lucifer yellow. Payloads were spiked in duplicate at 10 μM, separately, on both sides of the cell monolayer. Permeability rates from the apical to basolateral (A-B) direction and the basolateral to apical (B-A) direction were determined by sampling aliquots from both chambers immediately after treatment (t=0) and following incubation for 2 hours. Samples were protein precipitated with organic solvent containing internal standard and analyzed by LC-MS/MS (SCIEX; API 5500). The area ratio responses of payload/internal standard over time in both directions were used to generate permeability (cm/see) values. Efflux ratio was calculated by dividing B-A/A-B. Control compounds for low and high permeability and efflux behaved as expected.

[1] = Chemical stability of ADC payload, pH 5.5 buffer; details: Table 26; corresponding payload, pH 5.5, 37C, t1/2
Ad2.1 pre-mRNA splicing = assay: In vitro splicing (IVS) RT-qPCR, Ad2.1 pre-mRNA, HeLa nuclear extract; type: biochemical; details: payload of the ADC; read-out: qPCR-IVS-AT S Gmean IC50 (nm) Ad2.1 HELA.2
Protocol: HeLa nuclear extract preparation: HeLa S3 cell pellets were resuspended in hypotonic buffer (10 mM HEPES pH 7.9, 1.5 mM MgCl2, 10 mM KCl, 0.2 mM PMSF, 0.5 mM DTT) and the suspension was brought up to a total of 5 packed cell volume (PCV). After centrifugation, the supernatant was discarded, and the cells were brought up to 3 PCV with hypotonic buffer and incubated on ice for 10 min. Cells were lysed using a dounce homogenizer and then centrifuged. […] The nuclei were gently mixed for 30 min before centrifuging. The supernatant (nuclear extract) was then dialyzed into storage buffer (20 mM HEPES pH 7.9, 100 mM KCl, 0.2 mM EDTA, 20% glycerol, 0.2 mM PMSF, 0.5 mM DTT). Protein concentration was determined using NanoDrop 8000 UV-Vis spectrophotometer (ThermoFisher Scientific).
IVS: All Ad2-derived sequences (Pellizzoni et al. (1998) Cell 95(5):615-24) were cloned into pcDNA3.1(+) vector (Promega) using 5′ EcoRI and 3′ Xbal restriction sites. The plasmids were linearized using Xbal and used as DNA templates in in vitro transcription reactions. The FtzΔi intron-less plasmid (Luo and Reed (1999) 96(26):14937-42) was linearized using EcoRI. All RNAs were in vitro transcribed and then purified using MEGAScript T7 (Invitrogen) and MegaClear (Invitrogen) kits, respectively. For splicing reactions using Ad2 variant pre-mRNAs, 1 μL reactions were prepared using 8 μg nuclear extracts prepared from HeLa S3, 2 ng pre-mRNA, 0.2 ng FTZΔi, and varying concentrations of compounds or DMSO. After a 15 min pre-incubation at 30° C., 1 μL splicing activation buffer (0.5 mM ATP, 20 mM creatine phosphate, 1.6 mM MgCl2) was added, and the reactions were incubated for 90 min at 30° C. The reactions were then quenched with 13 μL DMSO, and 25 nL was used for RT-qPCR. RT-qPCR reactions were prepared using TaqMan RNA-to-CT 1-step kit (Life Technologies), RNA from splicing reactions, Ad2 (forward: [sequence]; reverse: [sequence]; probe: [sequence]) and Ftz (forward: [sequence]; reverse: [sequence]; probe: [sequence]) mRNA primer-probe sets. Prism 7 (Graphpad) was used for non-linear regression curve fitting of the formed spliced product and normalized to the control (DMSO) sample.

Ad2.2 pre-mRNA splicing = assay: In vitro splicing (IVS) RT-qPCR, Ad2.2 pre-mRNA, HeLa nuclear extract; type: biochemical; details: payload of the ADC; read-out: qPCR-IVS-AT S GMean IC50 (nM) Ad2.2 HELA.2
Protocol: To evaluate payload activity in a cell-free system, an in vitro splicing assay was performed. The payloads were incubated with nuclear extracts and pre-mRNA substrate minigenes.
HeLa nuclear extract preparation: HeLa S3 cell pellets were resuspended in hypotonic buffer (10 mM HEPES pH 7.9, 1.5 mM MgCl2, 10 mM KCl, 0.2 mM PMSF, 0.5 mM DTT) and the suspension was brought up to a total of 5 packed cell volume (PCV). After centrifugation, the supernatant was discarded, and the cells were brought up to 3 PCV with hypotonic buffer and incubated on ice for 10 min. Cells were lysed using a dounce homogenizer and then centrifuged. […]. The nuclei were gently mixed for 30 min before centrifuging. The supernatant (nuclear extract) was then dialyzed into storage buffer (20 mM HEPES pH 7.9, 100 mM KCl, 0.2 mM EDTA, 20% glycerol, 0.2 mM PMSF, 0.5 mM DTT). Protein concentration was determined using NanoDrop 8000 UV-Vis spectrophotometer (ThermoFisher Scientific).
IVS: All Ad2-derived sequences (Pellizzoni et al. (1998) Cell 95(5):615-24) were cloned into pcDNA3.1(+) vector (Promega) using 5′ EcoRI and 3′ Xbal restriction sites. The plasmids were linearized using Xbal and used as DNA templates in in vitro transcription reactions. The FtzΔi intron-less plasmid (Luo and Reed (1999) 96(26):14937-42) was linearized using EcoRI. All RNAs were in vitro transcribed and then purified using MEGAScript T7 (Invitrogen) and MegaClear (Invitrogen) kits, respectively. For splicing reactions using Ad2 variant pre-mRNAs, 1 μL reactions were prepared using 8 μg nuclear extracts prepared from HeLa S3, 2 ng pre-mRNA, 0.2 ng FTZΔi, and varying concentrations of compounds or DMSO. After a 15 min pre-incubation at 30° C., 1 μL splicing activation buffer (0.5 mM ATP, 20 mM creatine phosphate, 1.6 mM MgCl2) was added, and the reactions were incubated for 90 min at 30° C. The reactions were then quenched with 13 μL DMSO, and 25 nL was used for RT-qPCR. RT-qPCR reactions were prepared using TaqMan RNA-to-CT 1-step kit (Life Technologies), RNA from splicing reactions, Ad2 (forward: […]; reverse: […]; probe: […]) and Ftz (forward: […]; reverse: […]; probe: […]) mRNA primer-probe sets. Prism 7 (Graphpad) was used for non-linear regression curve fitting of the formed spliced product and normalized to the control (DMSO) sample. […] In the presence of payload, a decrease in the amount of spliced product was observed.

HCC1954 cells = assay: Cell viability CellTiter-Glo, HCC1954; type: cell-based; details: unconjugated payload of the ADC
Protocol: as §2
(§3) HCC1954 (ATCC), 2000 cells/well), N87 (ATCC, 4000 cells/well), SKBR3 (ATCC, 3000 cells/well), and MCF7 (ATCC, 1500 cells/well) cell lines were used.

N87 cells = assay: Cell viability CellTiter-Glo, N87; type: cell-based, human; details: unconjugated payload of the ADC
Protocol: as §2, §3

THP1.1 = assay: Payload cell potency and lethality CTGlo 72 h, THP1.1; type: cell-based; details: for CTGlo-AT S GMean LD50 (nM) 72 h THP1.1: payload
PC3 cells = assay: Cell viability, EPHA2-expressing PC3; type: cell-based; details: corresponding payload alone
Protocol: as §2

[2] = Caco-2 permeability of ADC payload; type: in vitro ADME; details: human, Caco-2; payload, B-A/A-B; read-out: Eflux ratio
Protocol: as §1

MCF7 cells = assay: Cell viability CellTiter-Glo, HER2-negative MCF7; details: unconjugated payload of the ADC
Protocol: HCC1954 (American Type Culture Collection (ATCC)) breast ductal carcinoma cells were plated at 2000 cells/well in flat bottom 96-well tissue culture plates (Corning) in a total volume of 90 μL tissue culture medium supplemented with 10% fetal bovine serum (ThermoFisher Scientific). Cells were treated with a 3-fold serial dilution of compound from 200 nM to 0.03 nM. Each concentration was tested in triplicate. At the time of treatment, a plate of untreated cells was evaluated using CellTiter-Glo®2.0 Luminescent Cell Viability Assay according to the manufacturer's recommendations (Promega; #G9241). CellTiter-Glo® 2.0 reagent was added to the medium, incubated, and assayed on an EnVision Multilabel Reader (PerkinElmer). Values represent time zero (TO). […] Using the luminescence value at time zero (TO), DMSO control growth (C), and test growth in the presence of compound (T144), the percentage growth was calculated at each of the compound concentrations levels. Percentage growth inhibition was calculated as: [(T144-T0)/(C-TO)]×100 for concentrations for which T144>/=TO or [(T144-T0)/T0]×100 for concentrations for which T144<TO. The dose response curve plots were generated using Prism 7 (Graphpad) and fit using nonlinear regression analysis and the log(inhibitor) versus response-variable slope (four parameters).
as §3

## CC[C@H](O)[C@@H](C)[C@H]1O[C@@H]1C[C@H](C)/C=C/C=C(\C)[C@H]1OC(=O)C[C@H](O)CC[C@@](C)(OC)[C@@H](OC(=O)N2CCN(C)CC2)/C=C/[C@@H]1C [D19, (2S,3S,6S,7R,10R,E)-10-hydroxy-2-((S,2E,4E)-7-((2R,3R)-3-((2R,3S)-3-hydroxypentan-2-yl)oxiran-2-yl)-6-methylhepta-2,4-dien-2-yl)-7-methoxy-3,7-dimethyl-12-oxooxacyclododec-4-en-6-yl 4-methylpiperazine-1-carboxylate]
MOLP8 cells
  LD50 (nM) (payload): 4.58 nM
  Rmin (%) (payload): −62.2%
Caco-2 cells
  Permeability Caco-2 A-B (10e-6 cm/s): 16 10e-6 cm/s
[1]
  pH 5.5 Stability (t1/2, 37C): 0.8

## CC[C@H](O)[C@@H](C)C1OC1C[C@@](C)(O)/C=C/C=C(\C)[C@H]1OC(=O)C[C@H](O)CC[C@@](C)(OC)[C@@H](OC(=O)N2CCNCC2)/C=C/[C@@H]1C (stereo in doubt) [D1, (2S,3S,6S,7R,10R,E)-10-hydroxy-2-((R,2E,4E)-6-hydroxy-7-((2S,3S)-3-((2R,3S)-3-hydroxypentan-2-yl)oxiran-2-yl)-6-methylhepta-2,4-dien-2-yl)-7-methoxy-3,7-dimethyl-12-oxooxacyclododec-4-en-6-yl piperazine-1-carboxylate]
Ad2.1 pre-mRNA splicing
  IC50: 17.6 nM
Ad2.2 pre-mRNA splicing
  IC50: 15.9 nM
HCC1954 cells
  Payload LD50: 5.485 nM
  Payload Rmin (%): −78.579% and −75.579%
N87 cells
  Payload LD50: >200 nM
THP1.1
  CTGlo-AT S GMean LD50 (nM) 72 h THP1.1: 41.408 nM
MOLP8 cells; Homo sapiens, MOLP-8, unconjugated payload of the ADC, read-out: GI50 (nM) (payload)
  GI50: 6.88 nM
MOLP8 cells
  LD50 (nM) (payload): 25.712 nM
  Rmin (%) (payload): −100.248%
PC3 cells
  Payload LD50: >400 nM
[2]
  efflux ratio at 2 h, 10 μM: 14.6
Caco-2 cells
  Perm. Mean Caco-2 A-B Perm (10e-6 cm/s): 0.14 10e-6 cm/s
  Perm. Mean Caco-2 B-A Perm (10e-6 cm/s): 2.05 10e-6 cm/s
  Eflux ratio: 14.643
MCF7 cells
  Payload LD50: 135.42 nM
  Payload Rmin (%): −63.414%

## C/C(=C\c1cc(F)cc(N2CCOCC2)c1)[C@H]1OC(=O)C[C@H](O)CC[C@H](C)[C@@H](OC(=O)N2CCN(C)CC2)/C=C/[C@@H]1C [D17]
Ad2.1 pre-mRNA splicing
  IC50: 17.9 nM
Ad2.2 pre-mRNA splicing
  IC50: 9.44 nM
THP1.1
  CTGlo-AT S GMean LD50 (nM) 72 h THP1.1: 24.908 nM
[2]
  efflux ratio at 2 h, 10 μM: 0.896
Caco-2 cells
  Permeability Caco-2 A-B (10e-6 cm/s): 20 10e-6 cm/s
[1]
  pH 5.5 Stability (t1/2, 37C): 7

## CC[C@H](O)[C@@H](C)C1OC1C[C@@](C)(O)/C=C/C=C(\C)[C@H]1OC(=O)C[C@H](O)CC[C@@](C)(OC(C)=O)[C@@H](OC(=O)N2CCNCC2)/C=C/[C@@H]1C (stereo in doubt) [D4, (2S,3S,6S,7R,10R,E)-7-acetoxy-10-hydroxy-2-((R,2E,4E)-6-hydroxy-7-((2S,3S)-3-((2R,3S)-3-hydroxypentan-2-yl)oxiran-2-yl)-6-methylhepta-2,4-dien-2-yl)-3,7-dimethyl-12-oxooxacyclododec-4-en-6-yl piperazine-1-carboxylate]
Ad2.1 pre-mRNA splicing
  IC50: 20.9 nM
Ad2.2 pre-mRNA splicing
  IC50: 17.3 nM
HCC1954 cells
  Payload LD50: 6.374 nM
  Payload Rmin (%): −81.34%
N87 cells
  Payload LD50: 38.774 nM
THP1.1
  CTGlo-AT S GMean LD50 (nM) 72 h THP1.1: 33.329 nM
MOLP8 cells
  LD50 (nM) (payload): 12.99 nM
  Rmin (%) (payload): −101.935%
PC3 cells
  Payload LD50: >400 nM
Caco-2 cells
  Permeability Caco-2 A-B (10e-6 cm/s): 0.1 10e-6 cm/s
  Perm. Mean Caco-2 A-B Perm (10e-6 cm/s): 0.1 10e-6 cm/s
  Perm. Mean Caco-2 B-A Perm (10e-6 cm/s): 1.79 10e-6 cm/s
  Eflux ratio: 17.9
MCF7 cells
  Payload LD50: 96.46 nM
  Payload Rmin (%): −60.923%
[1]
  pH 5.5 Stability (t1/2, 37C): 4.5

## CC(=O)N1CCC(n2nnc3c(F)cc(/C=C(\C)[C@H]4OC(=O)C[C@H](O)CC[C@H](C)[C@@H](OC(=O)N5CCN(C)CC5)/C=C/[C@@H]4C)cc32)CC1 [D15]
Ad2.1 pre-mRNA splicing
  IC50: 4.63 nM
Ad2.2 pre-mRNA splicing
  IC50: 4.93 nM
THP1.1
  CTGlo-AT S GMean LD50 (nM) 72 h THP1.1: 11.038 nM
MOLP8 cells
  LD50 (nM) (payload): 9.178 nM
  Rmin (%) (payload): −100.198%
PC3 cells
  Payload LD50: >400 nM
Caco-2 cells
  Permeability Caco-2 A-B (10e-6 cm/s): 3.4 10e-6 cm/s
MCF7 cells
  Payload LD50: 130.398 nM
  Payload Rmin (%): −68.503%
[1]
  pH 5.5 Stability (t1/2, 37C): 7

## C/C(=C\c1cccc(S(=O)(=O)N2CCCC2)c1)[C@H]1OC(=O)C[C@H](O)CC[C@H](C)[C@@H](OC(=O)N2CCN(C)CC2)/C=C/[C@@H]1C [D34]
Caco-2 cells
  Permeability Caco-2 A-B (10e-6 cm/s): 26 10e-6 cm/s
[1]
  pH 5.5 Stability (t1/2, 37C): 7

## CC(=O)N1CCC(n2nnc3c(F)cc(/C=C(\C)[C@H]4OC(=O)C[C@H](O)CC[C@H](C)[C@@H](OC(=O)N5CCNCC5)/C=C/[C@@H]4C)cc32)CC1 [D14]
Ad2.1 pre-mRNA splicing
  IC50: 10 nM
Ad2.2 pre-mRNA splicing
  IC50: 8.59 nM
N87 cells
  Payload LD50: >200 nM
THP1.1
  CTGlo-AT S GMean LD50 (nM) 72 h THP1.1: 25.594 nM
THP1.1; read-out: CTGlo-AT S GMean GI50 (nM) Ad2.2 HELA.2
  GI50: 3.58 nM
MOLP8 cells
  LD50 (nM) (payload): 8.5 nM
  Rmin (%) (payload): −61%
PC3 cells
  Payload LD50: >400 nM
[2]
  efflux ratio at 2 h, 10 μM: 202
MCF7 cells
  Payload LD50: 77.198 nM
  Payload Rmin (%): −61.886%

## C/C(=C\c1cc(F)cc(N2CCN(C(=O)Cn3cccn3)CC2)c1)[C@H]1OC(=O)C[C@H](O)CC[C@H](C)[C@@H](OC(=O)N2CCNCC2)/C=C/[C@@H]1C [D16]
Ad2.1 pre-mRNA splicing
  IC50: 16 nM
Ad2.2 pre-mRNA splicing
  IC50: 15.1 nM
HCC1954 cells; Homo sapiens
  GI50: 0.358 nM
HCC1954 cells
  Payload LD50: 2.037 nM
  Payload Rmin (%): −84.412%
N87 cells; Homo sapiens
  GI50: 0.41 nM
N87 cells
  Payload LD50: >200 nM
THP1.1
  CTGlo-AT S GMean LD50 (nM) 72 h THP1.1: 21.46 nM
[2]
  efflux ratio at 2 h, 10 μM: 32.4
Caco-2 cells
  Permeability Caco-2 A-B (10e-6 cm/s): 0.72 10e-6 cm/s
[1]
  pH 5.5 Stability (t1/2, 37C): 7
